Among the test systems are OVCAR-5 ovarian; HT29 colon; NCI-H460 lung; UACC-62 melanoma; CCRF-CEM leukemia; TK-10 renal; PC-3 prostate; SK-OV-3 ovarian; SNB-75 CNS; HCT-15 colon; A498 renal; CAKI-1 renal; KM12 colon; K-562 leukemia; SK-MEL-2 melanoma; SN12C renal; MDA-N.
Common to all, as to assay: growth of human tumour cells (NCI), 48 h

SMILES strings stand for the structures. “And” between values parts separate entries of the source, which are not always exact repeats. Equal entries are not always repeated.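 Results reflect a 48-hour exposure of cells in 96-well plates to compound at five concentrations. Here, GI50 denotes the concentration required for 50% inhibition of growth. TGI: concentration producing complete growth inhibition.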 A value given as a limit tells only on which side of the number the result lay.

For the compound `O=C(NCCCCNCCCNC(=O)C(F)(F)F)C(F)(F)F`, the TGI in the assay on OVCAR-5 ovarian, with HT29 colon, in the assay on NCI-H460 lung, with UACC-62 melanoma, in the assay on CCRF-CEM leukemia and with TK-10 renal was over 100 µM in each case. The TGI is over 100 µM in the assay with PC-3 prostate; 65.5 µM in the assay with SK-OV-3 ovarian; over 100 µM with SNB-75 CNS; over 100 µM with HCT-15 colon; over 100 µM in the assay on A498 renal; over 100 µM in the assay on CAKI-1 renal. Moreover, the TGI in the assay on KM12 colon, with K-562 leukemia, with SK-MEL-2 melanoma and in the assay on SN12C renal was over 100 µM in each case.
On to `CC1OC(OC2C(Oc3cc(O)c4c(=O)cc(-c5ccc(O)cc5)oc4c3)OC(CO)C(O)C2O)C(O)C(O)C1O` (stereo not given), for which the TGI with OVCAR-5 ovarian, in the assay on HT29 colon, in the assay with NCI-H460 lung, with UACC-62 melanoma, with CCRF-CEM leukemia and in the assay on TK-10 renal was over 100 µM throughout. Also, the TGI in the assay on SK-OV-3 ovarian, in the assay with SNB-75 CNS, in the assay on HCT-15 colon, in the assay with A498 renal, with CAKI-1 renal and in the assay with KM12 colon was over 100 µM in each case. Also, the TGI in the assay with K-562 leukemia, with SK-MEL-2 melanoma and in the assay with SN12C renal was over 100 µM each time.
For the compound `O=C(c1ccc(Cl)cc1)N(C(=S)N1CCN(c2ccccc2)CC1)c1ccccc1`, the TGI in the assay with OVCAR-5 ovarian, in the assay with HT29 colon, with NCI-H460 lung, with UACC-62 melanoma, in the assay with CCRF-CEM leukemia and in the assay with TK-10 renal was over 100 µM throughout. In addition, the TGI with SK-OV-3 ovarian, in the assay with SNB-75 CNS, with HCT-15 colon, with CAKI-1 renal, in the assay on KM12 colon and in the assay on K-562 leukemia was over 100 µM in each case. The TGI in the assay on SK-MEL-2 melanoma and in the assay on SN12C renal was over 100 µM throughout.
Turning to `Cc1ccc(S(=O)(=O)OCC23CCC(C4CC42)C2CC23)cc1` (stereo not given), the TGI with OVCAR-5 ovarian, in the assay with HT29 colon, in the assay with NCI-H460 lung, in the assay on UACC-62 melanoma, in the assay on CCRF-CEM leukemia and with TK-10 renal was over 100 µM throughout. Besides, the TGI in the assay on SK-OV-3 ovarian, in the assay on HCT-15 colon, with A498 renal, in the assay on CAKI-1 renal, in the assay with K-562 leukemia and in the assay on SN12C renal was over 100 µM each time.
With `O=[N+]([O-])c1cccc2nc3ccccc3c(NCCNCCO)c12`, the TGI in the assay on OVCAR-5 ovarian is 0.088 µM and 0.0672 µM; with NCI-H460 lung, 0.108 µM; in the assay on UACC-62 melanoma, 0.0315 µM and 0.0174 µM; in the assay on CCRF-CEM leukemia, 0.101 µM and 0.0455 µM; with PC-3 prostate it was 0.017 µM; in the assay with SK-OV-3 ovarian, 0.293 µM and 0.377 µM. Besides, the TGI in the assay on SNB-75 CNS is 0.0565 µM and 0.0397 µM; in the assay with HCT-15 colon, over 100 µM; with A498 renal, 0.0264 µM; in the assay on CAKI-1 renal, 0.088 µM; in the assay on KM12 colon, 0.0277 µM and 0.0202 µM; with K-562 leukemia, 0.0448 µM. Moreover, the TGI was 0.00744 µM in the assay with SK-MEL-2 melanoma and 0.173 µM in the assay on SN12C renal. In addition, the GI50 in the assay with SNB-75 CNS is 0.0132 µM.
In the case of `COc1cc(/C=C2\CCc3cc(OC)c(OC)cc3C2=O)cc(OC)c1`, the TGI was 99.3 µM with OVCAR-5 ovarian; over 100 µM in the assay on HT29 colon; over 100 µM with NCI-H460 lung; 18.4 µM in the assay with UACC-62 melanoma; over 60 µM in the assay with CCRF-CEM leukemia; over 100 µM in the assay on TK-10 renal. In addition, the TGI was over 100 µM in the assay on PC-3 prostate; over 100 µM in the assay with SK-OV-3 ovarian; over 100 µM with SNB-75 CNS; over 44.3 µM with HCT-15 colon; 39.8 µM with A498 renal; over 100 µM in the assay with CAKI-1 renal. Moreover, the TGI with KM12 colon was over 51.7 µM; with K-562 leukemia, over 61 µM; in the assay on SK-MEL-2 melanoma it was over 57.8 µM; in the assay with SN12C renal it was 38.2 µM.
In the case of `O=C(/C=C/c1ccc(Cl)c(Cl)c1)CCN1CCN(CCC(=O)/C=C/c2ccc(Cl)c(Cl)c2)CC1`, the TGI was 39.9 µM in the assay on OVCAR-5 ovarian; 46.8 µM with HT29 colon; 38.5 µM with NCI-H460 lung; 45.3 µM with UACC-62 melanoma; over 100 µM in the assay with CCRF-CEM leukemia; 36.6 µM in the assay with TK-10 renal. Moreover, the TGI in the assay on PC-3 prostate was 57.1 µM; in the assay on SK-OV-3 ovarian, over 100 µM; in the assay with SNB-75 CNS, over 100 µM; in the assay with HCT-15 colon, 34.1 µM; in the assay with A498 renal, over 100 µM; with CAKI-1 renal, 31.8 µM. Besides, the TGI with KM12 colon was 40.6 µM; in the assay with K-562 leukemia, over 100 µM; in the assay with SK-MEL-2 melanoma, 92.6 µM; in the assay with SN12C renal it was 80.9 µM.
On to `CCCN(CCC)C(=O)Cc1c2n(c3ccccc13)Cc1ccccc1-2`, for which the TGI in the assay on HT29 colon, with NCI-H460 lung, in the assay with UACC-62 melanoma, with CCRF-CEM leukemia, with TK-10 renal and in the assay with SK-OV-3 ovarian was over 100 µM each time. The TGI with SNB-75 CNS, in the assay on HCT-15 colon, in the assay on CAKI-1 renal, in the assay with KM12 colon, in the assay with K-562 leukemia and with SK-MEL-2 melanoma was over 100 µM throughout. The compound further yielded a TGI with SN12C renal of over 100 µM.
With `CCOC(=O)c1ccc(Nc2nc3ccc(C(F)(F)F)cc3nc2-c2ccccc2)cc1`, the TGI in the assay with OVCAR-5 ovarian was over 100 µM; in the assay with HT29 colon, over 100 µM; with NCI-H460 lung, over 100 µM; with UACC-62 melanoma it was 74.5 µM; in the assay on CCRF-CEM leukemia, over 100 µM; with TK-10 renal, over 100 µM. In addition, the TGI in the assay with PC-3 prostate, in the assay on SNB-75 CNS, in the assay with HCT-15 colon, with CAKI-1 renal, in the assay on KM12 colon and with K-562 leukemia was over 100 µM throughout. The compound further had a TGI in the assay with SN12C renal of over 100 µM.
In the case of `CC(C)(C)OC(=O)/C=C/C(=O)O/C=C/[N+](=O)[O-]`, the TGI in the assay on OVCAR-5 ovarian, with HT29 colon, in the assay with NCI-H460 lung, in the assay on UACC-62 melanoma, with CCRF-CEM leukemia and in the assay with TK-10 renal was over 100 µM throughout. The TGI in the assay with SK-OV-3 ovarian, in the assay with SNB-75 CNS, in the assay on HCT-15 colon, with MDA-N, in the assay with A498 renal and in the assay with CAKI-1 renal was over 100 µM each time. Besides, the TGI in the assay on KM12 colon, in the assay on K-562 leukemia and in the assay on SN12C renal was over 100 µM each time.
As for `CCCC(=O)N[C@@H](Cc1cc(I)c(O)c(I)c1)C(=O)NCCCNCCCCNCCCNC(=O)[C@@H](N)CCCN=C(N)N`, the TGI in the assay with HT29 colon, in the assay with NCI-H460 lung, with UACC-62 melanoma, in the assay on CCRF-CEM leukemia, in the assay on TK-10 renal and in the assay with HCT-15 colon was over 100 µM throughout. The TGI with KM12 colon, in the assay on K-562 leukemia and in the assay with SN12C renal was over 100 µM in each case.
As for `COC(=O)[C@H]1ON2O[C@@H](O[C@H]3CCCC[C@@H]3C(C)(C)c3ccccc3)C[C@@H]3CC[C@H]1[C@@]32C`, the TGI in the assay with OVCAR-5 ovarian, with HT29 colon, in the assay with NCI-H460 lung, with UACC-62 melanoma, with CCRF-CEM leukemia and in the assay on TK-10 renal was over 100 µM throughout. The TGI in the assay on SK-OV-3 ovarian, in the assay with SNB-75 CNS, in the assay with HCT-15 colon, with MDA-N, in the assay on A498 renal and in the assay on CAKI-1 renal was over 100 µM throughout. The TGI in the assay with KM12 colon, with K-562 leukemia and in the assay with SN12C renal was over 100 µM in each case.
With `O=[N+]([O-])C(=C/C1CCCCC1)/C(=C\C1CCCCC1)[N+](=O)[O-]`, the TGI was 38.8 µM in the assay with OVCAR-5 ovarian; 28.8 µM in the assay on HT29 colon; 12.5 µM in the assay on NCI-H460 lung; 17.6 µM with UACC-62 melanoma; 17.7 µM in the assay on CCRF-CEM leukemia; 16.8 µM in the assay on TK-10 renal. Further, the TGI was determined as 34.4 µM in the assay with PC-3 prostate; 42.7 µM in the assay on SK-OV-3 ovarian; 31.3 µM with SNB-75 CNS; 3.76 µM in the assay with HCT-15 colon; 30 µM in the assay on A498 renal; 11.1 µM in the assay with CAKI-1 renal. The TGI in the assay with KM12 colon was 29.8 µM; with K-562 leukemia it was over 82 µM; in the assay on SK-MEL-2 melanoma, 37.8 µM; with SN12C renal, 11.5 µM.
For the compound `N#C[C@](CO)(NC(=O)OCc1ccccc1)C(F)F`, the TGI in the assay with OVCAR-5 ovarian, in the assay on HT29 colon, with NCI-H460 lung, in the assay with UACC-62 melanoma, with CCRF-CEM leukemia and in the assay with TK-10 renal was over 100 µM throughout. The TGI in the assay with PC-3 prostate, in the assay with SK-OV-3 ovarian, in the assay on SNB-75 CNS, with HCT-15 colon, in the assay with A498 renal and in the assay on CAKI-1 renal was over 100 µM in each case. For the same compound, the TGI with KM12 colon, in the assay with K-562 leukemia and in the assay on SK-MEL-2 melanoma was over 100 µM in each case.

The record behind these values is PubChem BioAssay (NCI).
